# Experiments:
# [1] = Plasma concentration in Sprague-Dawley rat at 10 mg/kg, sc administered as single dose measured after 1 hr post dose by LC-MS/MS analysis; format: ADME, organism-based
# [2] = Plasma concentration in Sprague-Dawley rat at 3 mg/kg, sc administered as single dose measured after 1 hr post dose by LC-MS/MS analysis; format: ADME, organism-based
# [3] = Plasma concentration in Sprague-Dawley rat at 1 mg/kg, sc administered as single dose measured after 1 hr post dose by LC-MS/MS analysis; format: ADME, organism-based
# [4] = target: T1, Metabotropic glutamate receptor 2 (Homo sapiens, UniProt Q14416); test: Displacement of [3H]-LY459477 from recombinant human mGlu2 receptor expressed in HEK cell membranes after 90 mins by liquid scintillation counting
# T1 sequence (Q14416 whole entry): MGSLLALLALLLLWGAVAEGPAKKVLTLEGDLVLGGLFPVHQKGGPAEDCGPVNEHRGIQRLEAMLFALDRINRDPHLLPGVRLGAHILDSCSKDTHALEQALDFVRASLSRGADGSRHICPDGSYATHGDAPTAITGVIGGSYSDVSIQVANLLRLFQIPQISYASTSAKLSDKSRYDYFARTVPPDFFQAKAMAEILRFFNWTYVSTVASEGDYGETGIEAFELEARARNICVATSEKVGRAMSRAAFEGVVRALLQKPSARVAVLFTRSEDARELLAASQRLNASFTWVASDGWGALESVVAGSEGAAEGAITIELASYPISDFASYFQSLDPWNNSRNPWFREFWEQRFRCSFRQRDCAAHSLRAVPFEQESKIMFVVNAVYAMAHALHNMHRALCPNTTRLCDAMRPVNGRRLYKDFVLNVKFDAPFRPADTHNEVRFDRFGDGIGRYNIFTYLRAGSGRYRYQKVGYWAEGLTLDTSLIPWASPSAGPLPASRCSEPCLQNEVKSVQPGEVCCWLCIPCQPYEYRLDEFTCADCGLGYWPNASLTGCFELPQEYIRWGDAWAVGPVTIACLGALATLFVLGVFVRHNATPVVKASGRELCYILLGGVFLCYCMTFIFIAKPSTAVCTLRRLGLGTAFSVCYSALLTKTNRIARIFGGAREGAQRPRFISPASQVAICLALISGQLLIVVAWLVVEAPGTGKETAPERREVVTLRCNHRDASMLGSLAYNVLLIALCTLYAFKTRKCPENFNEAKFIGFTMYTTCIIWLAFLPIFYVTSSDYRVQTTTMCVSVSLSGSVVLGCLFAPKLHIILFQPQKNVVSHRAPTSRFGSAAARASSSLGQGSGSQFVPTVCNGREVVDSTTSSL
# [5] = target: Metabotropic glutamate receptor 1 (Homo sapiens, UniProt Q13255); test: Agonist activity at recombinant human mGlu1 receptor expressed in hamster AV12 cells co-expressing rat EAAT1/Galpha15 assessed as induction of increase in Ca2+ flux after 2.5 mins by Fluo-3 AM dye-based FLIPR assay; format: functional, cell-based
# [6] = target: T1, Metabotropic glutamate receptor 2; test: Agonist activity at recombinant human mGlu2 receptor expressed in hamster AV12 cells co-expressing rat EAAT1/Galpha15 assessed as induction of increase in Ca2+ flux after 2.5 mins by Fluo-3 AM dye-based FLIPR assay
# [7] = organism: Rattus norvegicus; test: Drug metabolism in Sprague-Dawley rat assessed as (1S,2S,4S,5R,6S)-2-Amino-4-[(3-hydroxybenzoyl)amino]-bicyclo[3.1.0]hexane-2,6-dicarboxylic Acid formation measured over 24 hrs; format: ADME
# [8] = target: Metabotropic glutamate receptor 5 (Homo sapiens, UniProt P41594); test: Agonist activity at recombinant human mGlu5 receptor expressed in hamster AV12 cells co-expressing rat EAAT1/Galpha15 assessed as induction of increase in Ca2+ flux after 2.5 mins by Fluo-3 AM dye-based FLIPR assay; format: functional, cell-based
# Sequence of Metabotropic glutamate receptor 5 (P41594 whole entry): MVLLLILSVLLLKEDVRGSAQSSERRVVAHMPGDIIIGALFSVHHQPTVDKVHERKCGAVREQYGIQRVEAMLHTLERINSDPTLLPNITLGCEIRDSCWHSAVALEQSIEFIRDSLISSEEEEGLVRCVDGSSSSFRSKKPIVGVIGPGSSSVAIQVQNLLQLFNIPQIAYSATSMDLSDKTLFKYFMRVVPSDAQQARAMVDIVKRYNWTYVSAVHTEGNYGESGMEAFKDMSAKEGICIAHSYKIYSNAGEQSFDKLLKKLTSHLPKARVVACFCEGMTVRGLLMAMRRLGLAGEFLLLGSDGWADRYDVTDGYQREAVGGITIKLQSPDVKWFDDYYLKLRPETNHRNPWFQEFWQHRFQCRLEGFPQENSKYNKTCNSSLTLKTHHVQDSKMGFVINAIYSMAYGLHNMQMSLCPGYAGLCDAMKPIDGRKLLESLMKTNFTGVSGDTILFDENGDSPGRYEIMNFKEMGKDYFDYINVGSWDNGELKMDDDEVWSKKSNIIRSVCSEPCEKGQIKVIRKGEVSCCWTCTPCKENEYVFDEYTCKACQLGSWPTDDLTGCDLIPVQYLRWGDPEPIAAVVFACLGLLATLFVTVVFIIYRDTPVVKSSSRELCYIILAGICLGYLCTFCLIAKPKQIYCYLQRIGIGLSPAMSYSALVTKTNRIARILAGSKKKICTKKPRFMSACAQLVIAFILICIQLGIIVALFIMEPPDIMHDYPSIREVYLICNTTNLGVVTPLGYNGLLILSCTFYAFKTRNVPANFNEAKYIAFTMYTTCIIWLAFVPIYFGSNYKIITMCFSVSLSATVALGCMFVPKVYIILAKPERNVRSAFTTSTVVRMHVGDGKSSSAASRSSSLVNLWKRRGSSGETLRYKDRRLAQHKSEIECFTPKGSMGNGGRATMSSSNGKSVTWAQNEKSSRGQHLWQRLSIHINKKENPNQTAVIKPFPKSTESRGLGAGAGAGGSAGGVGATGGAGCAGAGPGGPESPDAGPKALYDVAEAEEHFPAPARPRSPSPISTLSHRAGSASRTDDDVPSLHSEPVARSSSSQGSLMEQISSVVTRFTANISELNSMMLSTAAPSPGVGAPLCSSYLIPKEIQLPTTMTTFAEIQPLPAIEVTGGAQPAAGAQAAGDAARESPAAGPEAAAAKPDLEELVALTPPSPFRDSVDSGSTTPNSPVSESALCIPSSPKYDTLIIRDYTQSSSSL
# [9] = target: Metabotropic glutamate receptor 6 (Homo sapiens, UniProt O15303); test: Agonist activity at human mGlu6 receptor expressed in hamster AV12 cells co-expressing rat EAAT1 assessed as inhibition of forskolin-stimulated cAMP formation after 20 mins by HTRF assay; format: functional, cell-based
# Sequence of Metabotropic glutamate receptor 6 (O15303 whole entry): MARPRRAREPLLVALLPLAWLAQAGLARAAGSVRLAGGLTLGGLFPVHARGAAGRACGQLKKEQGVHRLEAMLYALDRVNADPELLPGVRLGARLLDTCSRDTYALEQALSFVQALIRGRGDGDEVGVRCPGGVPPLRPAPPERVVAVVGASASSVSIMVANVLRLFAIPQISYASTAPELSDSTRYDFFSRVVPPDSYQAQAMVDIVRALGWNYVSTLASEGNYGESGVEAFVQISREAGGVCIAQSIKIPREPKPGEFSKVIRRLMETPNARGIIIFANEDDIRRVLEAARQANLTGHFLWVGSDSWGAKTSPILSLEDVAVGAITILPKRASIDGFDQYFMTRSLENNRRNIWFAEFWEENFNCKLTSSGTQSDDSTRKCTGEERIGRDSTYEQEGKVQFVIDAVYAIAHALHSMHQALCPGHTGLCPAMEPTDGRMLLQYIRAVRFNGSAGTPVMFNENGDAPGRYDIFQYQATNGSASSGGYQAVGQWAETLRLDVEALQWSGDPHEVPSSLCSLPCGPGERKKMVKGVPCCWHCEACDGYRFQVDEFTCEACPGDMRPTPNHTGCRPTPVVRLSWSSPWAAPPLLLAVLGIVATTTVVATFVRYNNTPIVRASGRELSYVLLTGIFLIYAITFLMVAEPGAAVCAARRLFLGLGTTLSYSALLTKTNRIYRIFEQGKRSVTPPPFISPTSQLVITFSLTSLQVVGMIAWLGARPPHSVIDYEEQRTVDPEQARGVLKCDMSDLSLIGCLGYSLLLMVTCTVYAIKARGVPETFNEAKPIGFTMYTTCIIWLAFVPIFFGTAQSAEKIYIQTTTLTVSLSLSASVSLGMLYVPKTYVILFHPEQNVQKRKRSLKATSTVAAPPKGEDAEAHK
# [10] = target: Metabotropic glutamate receptor 7 (Homo sapiens, UniProt Q14831); test: Agonist activity at recombinant human mGlu7 receptor expressed in hamster AV12 cells co-expressing rat EAAT1/Galpha15 assessed as induction of increase in Ca2+ flux after 2.5 mins by Fluo-3 AM dye-based FLIPR assay; format: functional, cell-based
# [11] = target: Metabotropic glutamate receptor 8 (Homo sapiens, UniProt O00222); test: Antagonist activity at recombinant human mGlu8 receptor expressed in hamster AV12 cells co-expressing rat EAAT1/Galpha15 assessed as inhibition of glutamate induced increase in Ca2+ flux after 2.5 mins by Fluo-3 AM dye-based FLIPR assay; format: functional, cell-based
# [12] = target: Group II metabotropic glutamate receptor (mGlu2/mGlu3) (Rattus norvegicus, UniProt P31421+P31422); test: Displacement of [3H]-LY459477 from mGlu2/3 receptor in Sprague-Dawley rat forebrain primary cortical membranes after 90 mins by liquid scintillation counting
# [13] = Drug metabolism in mouse liver microsomes at 4 uM; format: ADME, microsome; conditions: read-out: Drug metabolism
# [14] = Drug metabolism in rat liver microsomes at 4 uM; format: ADME, microsome; conditions: read-out: Drug metabolism
# [15] = Drug metabolism in dog liver microsomes at 4 uM; format: ADME, Canis lupus familiaris, microsome; conditions: read-out: Drug metabolism
# [16] = Fraction unbound in rat plasma; format: ADME, cell-free
# [17] = Fraction unbound in rat brain; format: ADME, tissue-based
# [18] = Half life in Sprague-Dawley rat at 1 mg/kg, iv measured over 8 hrs by LC-MS/MS analysis; format: ADME, organism-based; conditions: in vivo
# [19] = Cmax in Sprague-Dawley rat at 3 mg/kg, sc measured over 8 hrs by LC-MS/MS analysis; format: ADME, organism-based; set-up: dose 3 mg/kg, route subcutaneous; conditions: in vivo
# [20] = AUC in Sprague-Dawley rat at 3 mg/kg, sc measured over 8 hrs by LC-MS/MS analysis; format: ADME, organism-based; set-up: dose 3 mg/kg, time < 8 hr, route subcutaneous; conditions: in vivo
# [21] = Drug level in Sprague-Dawley rat CSF at 0.1 mg/kg, sc administered as single dose measured after 1 hr post dose by LC-MS/MS analysis; format: ADME, organism-based, Cerebrospinal fluid; conditions: read-out: Drug uptake
# [22] = Drug level in Sprague-Dawley rat CSF at 1 mg/kg, sc administered as single dose measured after 1 hr post dose by LC-MS/MS analysis; format: ADME, organism-based, Cerebrospinal fluid; conditions: read-out: Drug uptake
# [23] = Plasma concentration in Sprague-Dawley rat at 15 mg/kg/day, sc administered via infusion measured after 6 hrs post dose by LC-MS/MS analysis; format: ADME, organism-based
# [24] = Plasma concentration in Sprague-Dawley rat at 0.5 mg/kg/day, sc administered via infusion measured after 12 hrs post dose by LC-MS/MS analysis; format: ADME, organism-based
# [25] = Plasma concentration in Sprague-Dawley rat at 1.5 mg/kg/day, sc administered via infusion measured after 12 hrs post dose by LC-MS/MS analysis; format: ADME, organism-based
# [26] = Plasma concentration in Sprague-Dawley rat at 5 mg/kg/day, sc administered via infusion measured after 12 hrs post dose by LC-MS/MS analysis; format: ADME, organism-based
# [27] = Plasma concentration in Sprague-Dawley rat at 1.5 mg/kg/day, sc administered via infusion measured after 24 hrs post dose by LC-MS/MS analysis; format: ADME, organism-based
# [28] = Plasma concentration in Sprague-Dawley rat at 5 mg/kg/day, sc administered via infusion measured after 24 hrs post dose by LC-MS/MS analysis; format: ADME, organism-based
# [29] = Plasma concentration in Sprague-Dawley rat at 15 mg/kg/day, sc administered via infusion measured after 24 hrs post dose by LC-MS/MS analysis; format: ADME, organism-based
# [30] = Plasma concentration in Sprague-Dawley rat at 1.5 mg/kg/day, sc administered via infusion measured after 48 hrs post dose by LC-MS/MS analysis; format: ADME, organism-based
# [31] = Plasma concentration in Sprague-Dawley rat at 15 mg/kg/day, sc administered via infusion measured after 48 hrs post dose by LC-MS/MS analysis; format: ADME, organism-based
# [32] = Plasma concentration in Sprague-Dawley rat at 0.5 mg/kg/day, sc administered via infusion measured after 72 hrs post dose by LC-MS/MS analysis; format: ADME, organism-based
# [33] = Plasma concentration in Sprague-Dawley rat at 1.5 mg/kg/day, sc administered via infusion measured after 72 hrs post dose by LC-MS/MS analysis; format: ADME, organism-based
# [34] = Plasma concentration in Sprague-Dawley rat at 5 mg/kg/day, sc administered via infusion measured after 72 hrs post dose by LC-MS/MS analysis; format: ADME, organism-based
# [35] = Drug level in Sprague-Dawley rat CSF at 15 mg/kg/day, sc administered via infusion measured after 72 hrs post dose by LC-MS/MS analysis; format: ADME, organism-based, Cerebrospinal fluid; conditions: read-out: Drug uptake
# [36] = organism: Rattus norvegicus; test: Drug metabolism in Sprague-Dawley rat assessed as (1S,2S,4S,5R,6S)-di-tert-butyl 4-amino-2-(tert-butoxycarbonylamino)bicyclo[3.1.0]hexane-2,6-dicarboxylate formation measured over 24 hrs; format: ADME
# [37] = system: Rattus norvegicus; test: Toxicity in Sprague-Dawley rat assessed as reduction in spontaneous locomotive activity at 30 mg/kg, sc after 90 mins; format: organism-based; set-up: scale not given: the % may be the effect or the level left; conditions: in vivo, 1.5 h
# [38] = target: Group II metabotropic glutamate receptor (mGlu2/mGlu3) (Rattus norvegicus) (UniProt P31421+P31422); conditions: Sprague-Dawley
# Sequence of Group II metabotropic glutamate receptor (mGlu2/mGlu3) (Rattus norvegicus) (P31421 whole entry, looked up): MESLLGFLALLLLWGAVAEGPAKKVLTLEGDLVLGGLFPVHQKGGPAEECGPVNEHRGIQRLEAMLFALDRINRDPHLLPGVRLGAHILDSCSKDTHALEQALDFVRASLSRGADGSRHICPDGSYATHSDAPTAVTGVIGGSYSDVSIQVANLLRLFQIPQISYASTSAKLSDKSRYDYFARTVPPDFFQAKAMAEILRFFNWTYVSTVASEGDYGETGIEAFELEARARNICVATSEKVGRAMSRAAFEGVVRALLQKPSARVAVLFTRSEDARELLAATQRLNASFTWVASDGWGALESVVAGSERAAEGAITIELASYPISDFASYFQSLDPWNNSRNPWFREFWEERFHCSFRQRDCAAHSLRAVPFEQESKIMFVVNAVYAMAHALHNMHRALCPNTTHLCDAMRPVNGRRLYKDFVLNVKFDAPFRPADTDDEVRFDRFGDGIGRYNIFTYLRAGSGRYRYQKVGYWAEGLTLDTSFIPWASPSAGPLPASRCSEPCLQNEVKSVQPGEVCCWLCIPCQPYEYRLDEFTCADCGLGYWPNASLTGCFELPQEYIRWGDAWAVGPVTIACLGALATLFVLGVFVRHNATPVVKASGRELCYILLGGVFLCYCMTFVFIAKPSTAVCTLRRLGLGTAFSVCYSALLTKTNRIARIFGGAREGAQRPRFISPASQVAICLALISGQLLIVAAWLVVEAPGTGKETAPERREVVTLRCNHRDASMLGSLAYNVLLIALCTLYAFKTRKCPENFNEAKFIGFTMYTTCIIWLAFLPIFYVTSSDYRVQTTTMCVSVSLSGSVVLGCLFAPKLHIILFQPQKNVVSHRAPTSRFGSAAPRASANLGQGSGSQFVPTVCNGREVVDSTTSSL
# Sequence of Group II metabotropic glutamate receptor (mGlu2/mGlu3) (Rattus norvegicus) (P31422 whole entry, looked up): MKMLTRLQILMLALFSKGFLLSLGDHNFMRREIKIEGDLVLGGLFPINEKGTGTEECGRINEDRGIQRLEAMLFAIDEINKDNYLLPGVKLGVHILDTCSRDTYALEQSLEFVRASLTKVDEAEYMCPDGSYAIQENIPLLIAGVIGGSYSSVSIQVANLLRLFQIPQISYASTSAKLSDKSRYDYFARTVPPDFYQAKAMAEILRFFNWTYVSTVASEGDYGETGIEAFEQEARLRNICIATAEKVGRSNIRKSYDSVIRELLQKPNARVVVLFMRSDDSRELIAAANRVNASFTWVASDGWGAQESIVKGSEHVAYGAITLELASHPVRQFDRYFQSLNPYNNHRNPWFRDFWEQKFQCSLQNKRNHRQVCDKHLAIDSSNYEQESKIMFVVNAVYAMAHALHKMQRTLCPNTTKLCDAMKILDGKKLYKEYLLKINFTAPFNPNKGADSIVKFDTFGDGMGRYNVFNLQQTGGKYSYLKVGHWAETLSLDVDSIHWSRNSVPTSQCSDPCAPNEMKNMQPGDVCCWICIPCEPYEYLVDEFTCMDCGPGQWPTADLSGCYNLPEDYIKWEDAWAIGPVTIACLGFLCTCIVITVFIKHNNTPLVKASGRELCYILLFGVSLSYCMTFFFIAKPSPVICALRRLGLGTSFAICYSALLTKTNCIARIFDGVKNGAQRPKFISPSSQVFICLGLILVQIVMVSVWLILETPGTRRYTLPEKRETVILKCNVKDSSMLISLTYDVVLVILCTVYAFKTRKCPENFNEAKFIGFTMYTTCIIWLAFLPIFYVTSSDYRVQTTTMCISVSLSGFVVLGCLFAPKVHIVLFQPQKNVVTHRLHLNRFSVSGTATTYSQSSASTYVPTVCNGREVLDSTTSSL
# Description: Agonist activity at mGlu2/3 receptor in Sprague-Dawley rat forebrain assessed as inhibition of spontaneous Ca2+ oscillations in cortical neurons after 300 secs by FLIPR assay
compound,measurement,setting,value
COc1cccc(C(=O)N[C@H]2C[C@@](N)(C(=O)O)[C@@H]3[C@@H](C(=O)O)[C@@H]32)c1,concentration at 1 h,[1],25900 nM
same,concentration at 1 h,[2],7180 nM
same,concentration at 1 h,[3],1510 to 1580 nM
same,Ki,[4],412 nM
same,EC50,[5],> 25000 nM
same,EC50,[6],277 nM
same,Drug metabolism,[7],< 2.5 nM
same,EC50,[8],> 25000 nM
same,EC50,[9],1950 nM
same,EC50,[10],> 25000 nM
same,IC50,[11],> 12500 nM
same,Ki,[12],106 nM
same,metabolised at 4 µM,[13],11.5%
same,metabolised at 4 µM,[14],23%
same,metabolised at 4 µM,[15],28.9%
same,fraction unbound,[16],1
same,fraction unbound,[17],1
same,half-life,[18],3.1 h
same,Cmax,[19],6780 nM
same,AUC at 8 h,[20],9.88 µM·h
same,concentration at 1 h,[21],2.48 nM
same,concentration at 1 h,[22],12.5 to 22.5 nM
same,concentration at 6 h,[23],3840 nM
same,concentration at 12 h,[24],143 nM
same,concentration at 12 h,[25],389 nM
same,concentration at 12 h,[26],1260 nM
same,concentration at 24 h,[27],403 nM
same,concentration at 24 h,[28],1300 nM
same,concentration at 24 h,[29],3170 nM
same,concentration at 48 h,[30],224 nM
same,concentration at 48 h,[31],2130 nM
same,concentration at 72 h,[32],91.2 nM
same,concentration at 72 h,[33],361 nM
same,concentration at 72 h,[34],1310 nM
same,concentration at 72 h,[35],86.7 nM
same,Drug metabolism,[36],< 2.5 nM
same,Activity,[37],36%
same,EC50H,[38],0.44 nM
same,EC50L,[38],43.6 nM

# From ChEMBL document CHEMBL4020826 (J Med Chem, 2018)
